Measurements from publication PMC2880193 (Archives of biochemistry and biophysics, 2010).

Biological target: T1, Put1p (Put1pΔ18) (Saccharomyces cerevisiae, UniProt P09368)
T1 sequence (P09368 19-476): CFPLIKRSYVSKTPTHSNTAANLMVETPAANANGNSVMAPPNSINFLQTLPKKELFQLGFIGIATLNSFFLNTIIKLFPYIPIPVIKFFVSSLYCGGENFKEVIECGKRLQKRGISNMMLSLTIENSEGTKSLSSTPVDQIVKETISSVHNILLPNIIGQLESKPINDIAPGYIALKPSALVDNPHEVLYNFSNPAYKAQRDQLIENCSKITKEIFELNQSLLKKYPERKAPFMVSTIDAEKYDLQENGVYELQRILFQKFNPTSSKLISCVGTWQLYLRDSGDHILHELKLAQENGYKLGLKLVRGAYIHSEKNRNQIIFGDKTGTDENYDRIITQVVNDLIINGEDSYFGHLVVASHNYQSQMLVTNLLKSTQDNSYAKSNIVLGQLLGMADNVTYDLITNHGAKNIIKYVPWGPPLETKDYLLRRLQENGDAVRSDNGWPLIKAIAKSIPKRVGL
Assay: proline:DCPIP assay, Lineweaver-Burk plot
Assay type: biochemical

O=C(O)[C@@H]1CCCO1 [L-THFA]
Ki: 5.3 mM
